Test results reported in patent US20050214285A1, “Epitopes or mimotopes derived from the C-epsilon-3 or C-epsilon-4 domains of IgE, antagonists thereof, and their therapeutic uses” (SmithKline Beecham Biologicals, s.a. and Peptide …, priority 1999, published 2005).
pKd: −log10 of the molar value. Where two headings read alike, the source gives them in different places. Positions of bridges follow the written chain, without caps; N, C: chain ends. Residues, ends and D or L forms follow the SMILES beside them. No end group written: not given here.

Tests used:
PTmAb0005 [1] = assay: Phage display ranking of peptide ligands for PTmAb0005; assay type: binding; conditions: for Rank (ECL) PTmAb0005: primary phage display biopannings (Table 6); for PTmAb Rank 0005: IgEC67 mutants (Table 8)
Procedure: (§1) Phage display libraries were used to map the binding sites of the monoclonal antibodies using three different phage libraries, displaying either the XCX15, XCX10 or XAX10 peptide sequence (where X is any amino acid) at the N-terminus of the phage gVIIIp. Tables 6 and 7 show the results of selecting for peptide ligands with the anti human IgE monoclonal antibodies […]. […]
This was performed by introducing random mutations by PCR mutagenesis and sub-cloning into the Fuse 5 vector for minor filamentous phage protein gIIIp display. These, and other results, confirmed the importance of the amino acids within IgEC67 which aligned with the Cε2 epitope. […] Mutations in other sites had little effect on the affinity to PTmAb0005.
(§2) This involved a DNA sub-cloning transfer from the major coat protein (gVIIIp) filamentous phage display vector to a lower copy number minor phage coat protein (gIIIp) display vector with a random PCR step. […] Included in the tables are ranking orders and also BIAcore affinities where available.

PTmAb0005 [2] = assay: BIAcore affinity to PTmAb0005; assay type: binding; conditions: for Kd: read-out: PTmAb BIAcore KD^Rel (μM) PTmAb0005
Source text: as §2
(§3) Thus indicating the importance of correct presentation of the peptides of the present invention to adopt a shape which closely resembles the native target in the context of the whole IgE molecule. [drawing]

PTmAb0011 [3] = assay: BIAcore affinity to PTmAb0011; assay type: binding, mouse; conditions: for Kd: read-out: PTmAb BIAcore KD^Rel (μM) PTmAb0011
Source text: as §2, §3

PTmAb0011 [4] = assay: Phage display ranking of peptide ligands for PTmAb0011; assay type: binding, mouse; conditions: IgEC67 mutants (Table 8)
Source text: as §1, §2

Molecule	PTmAb Rank 0005 (PTmAb0005 [1])	PTmAb Rank 0011 (PTmAb0011 [4])	other results
CSCC[C@H](NC(=O)[C@H](CCC(N)=O)NC(=O)CNC(=O)[C@H](Cc1ccc(O)cc1)NC(=O)[C@@H](NC(=O)[C@H](CC(C)C)NC(=O)[C@H](CS)NC(=O)[C@@H](N)CCC(=O)O)C(C)C)C(=O)N[C@@H](C)C(=O)N[C@@H](CC(=O)O)C(=O)N[C@@H](CS)C(=O)N[C@@H](C)C(=O)N[C@@H](C)C(=O)NCC(=O)NCC(=O)N[C@@H](Cc1c[nH]c2ccccc12)C(=O)N1CCC[C@H]1C(=O)O [IgEC13] (H-ECLVYGQMADCAAGGWP-OH)	–	–	Rank (ECL) PTmAb0005 (PTmAb0005 [1]): 5; Kd (PTmAb0005 [2]): > 1000 µM; Kd (PTmAb0011 [3]): > 1000 µM
CSCC[C@H](NC(=O)[C@H](CCC(N)=O)NC(=O)[C@H](CC(C)C)NC(=O)CNC(=O)[C@H](CCC(=O)O)NC(=O)[C@H](CC(C)C)NC(=O)[C@@H](NC(=O)[C@H](C)NC(=O)[C@H](CC(N)=O)NC(=O)[C@H](CS)NC(=O)[C@@H](N)CCC(N)=O)C(C)C)C(=O)N[C@H](C(=O)N[C@@H](CC(=O)O)C(=O)N[C@@H](Cc1c[nH]cn1)C(=O)N[C@@H](CS)C(=O)N[C@@H](Cc1c[nH]c2ccccc12)C(=O)N[C@@H](CC(N)=O)C(=O)O)C(C)C [IgEC26] (H-QCNAVLEGLQMVDHCWN-OH)	–	–	Rank (ECL) PTmAb0005 (PTmAb0005 [1]): 43; Kd (PTmAb0005 [2]): 3 µM; Kd (PTmAb0011 [3]): 53.4 µM
CSCC[C@H](NC(=O)[C@H](CCC(=O)O)NC(=O)[C@H](CO)NC(=O)[C@H](CO)NC(=O)[C@@H]1CCCN1C(=O)[C@@H](NC(=O)[C@H](CCSC)NC(=O)[C@H](CCC(N)=O)NC(=O)[C@@H](NC(=O)[C@H](CCC(=O)O)NC(=O)[C@@H]1CCCN1C(=O)[C@H](CC(=O)O)NC(=O)[C@H](C)NC(=O)[C@@H](NC(=O)[C@H](CS)NC(=O)[C@@H](N)CS)C(C)C)[C@@H](C)O)[C@@H](C)O)C(=O)N[C@@H](Cc1ccccc1)C(=O)O [IgEC29] (H-CCVADPETQMTPSSEMF-OH)	–	–	Rank (ECL) PTmAb0005 (PTmAb0005 [1]): 40; Kd (PTmAb0005 [2]): > 600 µM; Kd (PTmAb0011 [3]): > 600 µM
CSCC[C@@H]1NC(=O)[C@H](C(C)C)NC(=O)[C@H](CCC(N)=O)NC(=O)CNC(=O)[C@H](CC(=O)O)NC(=O)[C@H](CCC(=O)O)NC(=O)[C@H](CC(C)C)NC(=O)[C@@H](NC(C)=O)CSSC[C@@H](C(=O)N2CCC[C@H]2C(=O)N[C@@H](CCCNC(=N)N)C(=O)N[C@@H](CCC(=O)O)C(=O)N[C@@H](C)C(=O)N[C@@H](C)C(=O)N[C@@H](CCC(=O)O)C(=O)NCC(=O)N[C@@H](CC(=O)O)C(=O)N[C@@H](CCCCNC(C)=O)C(N)=O)NC(=O)[C@H](CC(C)C)NC(=O)[C@H](CC(=O)O)NC(=O)[C@H](C(C)C)NC(=O)[C@H](CC(=O)O)NC1=O [PT1079] (Ac-CLEDGQVMDVDLCPREAAEGDK(Ac)-NH2; disulfide 1-13)	–	–	pKd (PTmAb0005 [2]; BIAcore, read-out: apparent affinity to PTmAb0005): 7.70
ADGAGCFMNKQLADLEMCPRDDAEA [IgEC67-9]	2.7	2.4	–
ADGAGCFMNKQLADPELCPREAEEA [IgEC67-4]	2.4	1.3	–
ADGAGCFMNKQLVDLELCPRGAAEA [IgEC67-5]	1.9	1.6	–
ADGAGCFMNKQMADLELCPREAAEA [IgEC67-10]	4.2	2.3	–
ADGAGCFMNKQMADLELCPRTAAEA [IgEC67-1]	4.1	2.2	–
ADGAGCFMNKQMADWEMCPRAAAEA [IgEC67-11]	1.8	1.9	–
ADGAGCFMNKQQADLELCPRGAAEA [IgEC67-14]	1.2	0.9	–
ADGAGCFMNNQLADWELCPRAAAEA [IgEC67-6]	1.9	1.6	–
CLEDGQVMDVDCPREAAEGDK (disulfide 1-12 (inferred)) [PT1078, P1 mimotope]	–	–	binding of the peptide to PTmAb0005 compared with PT1079 (PTmAb0005 [2]): reduced the binding; binding of the peptide to PTmAb0011 compared with PT1079 (PTmAb0011 [3]): reduced the binding
